In US5620864A, “Acceptor for fucosyl transferase” (Health Research, Inc., priority 1992, dated 1997):
Values joined by “and” are separate entries in the source; they are usually repeats but may differ in a detail not shown here. Equal entries are not always repeated.

Legend:
[1] = test system: α1,3-L-fucosyltransferase of the soluble fraction of human ovarian tumor; test: Assay of α1,3-fucosyltransferase with synthetic acceptors, partially purified enzyme of ovarian tumor soluble fraction; type: biochemical; settings: for [14C] Fucose Incorporated (CPM): acceptor 3.0 mM, 37° C. 18 h
Method: (§1) An incubation mixture contained 50 mM HEPES-NaOH, pH 7.5, 5 mM MnC12, 7 mM ATP, 3 mM NaN3, the acceptor 0.3 mM (for serum enzyme) or 3.0 mM (for tumor enzyme), 0.125 μCi of GDP-[U-^14 C] Fuc (Sp. Act. 216 mCi/mmol) and enzyme in a total volume of 0.10 ml; the control incubation mixture had everything except the acceptor. At the end of incubation at 37° C. for 18 h, the mixture was diluted with 1 ml water and passed through Dowex-1-C1 column (1 ml in a Pasteur pipet). The column was washed twice with 1 ml water; the breakthrough and wash, which contained the [^14 C] fucosylated neutral acceptor, were collected together in a scintillation vial and counted for radioactivity using the scintillation coctail 3a70 (Research Products International, Mount Prospects, Ill.) and Beckman LS9000. The Dowex column was then eluted successively with 3 ml each of 0.1M and 0.2M NaCl; these eluates which contained the [^14 C] fucosylated sulfated acceptors, were counted for radioactivity as before. Corrections were made by subtracting the radioactivity in the water and NaCl eluates of the control incubation mixture from the corresponding test fractions. The duplicate runs of samples gave almost identical values, the difference being <5%.
As shown in the scheme set forth in FIG. 2, the α-L-fucosidase-free extract of the tissue (40 g), after concentration by 80% (NH4)2 SO4 precipitation was fractionated on bovine IgG glycopep-Sepharose in batches of 25 ml. After washing the column with the equilibration buffer, the bound enzyme was eluted with 1 M NaCl in the same buffer. The protein positive fractions were pooled and processed as shown in the scheme 2.0 ml of the above preparation was loaded on a Sephacryl S-200 column (Superfine:2.6 cm×88.0 cm) equilibrated at 4° C. with 50 mM Tris-HC1, pH 7.0 containing 0.15M NaCl and 0.1% Triton X-100 and eluted with the same buffer. Fractions of 3.0 ml were collected. The fucosyltransferase activity was located in the effluent fractions, by assaying first every 5th fraction and then obtaining the activity profile by assaying the alternate fractions in that range, using 2'-fucosyl LacNAc as the acceptor. […] Its elution position, which is slightly later than BSA, run separately on the same column, indicates its molecular weight as <67,000 daltons. […] The enzyme has been purified 66 fold over the soluble extract with a recovery of 6.2%. The enzyme at this stage lost its activity either kept frozen at -20° C. or left at 4° C. for more than a week. However, the enzyme at the end of the previous step was fairly stable for at least two months at 4° C. So this preparation of enzyme was used in acceptor ability comparison studies.
When α1,3-fucosyltransferase activity of the partially purified enzyme preparation from the soluble portion of ovarian tumor was measured and compared with the activity of other acceptors, the following results were obtained. 2'-methyl LacNAc, LacNAc and Galβ1, 3GlcNAc were respectively 100.0%, 60.6% and 565.5% active, indicating the presence of both α1,3 and α1,4 fucosyltransferase activities in this preparation.

[2] = biological target: T1, serum α1,3-L-fucosyltransferase (Homo sapiens, UniProt P51993); test: Assay of α1,3-fucosyltransferase with various synthetic acceptors, ovarian cancer sera as enzyme source; type: biochemical; settings: for [14C] Fucose Incorporated (CPM): acceptor 0.3 mM, 37° C. 18 h
T1 construct: Sera were collected from healthy females and ovarian cancer patients; from tissue; host or cells: blood serum of ovarian cancer patients and healthy females
T1 sequence (P51993 35-359 limits assumed): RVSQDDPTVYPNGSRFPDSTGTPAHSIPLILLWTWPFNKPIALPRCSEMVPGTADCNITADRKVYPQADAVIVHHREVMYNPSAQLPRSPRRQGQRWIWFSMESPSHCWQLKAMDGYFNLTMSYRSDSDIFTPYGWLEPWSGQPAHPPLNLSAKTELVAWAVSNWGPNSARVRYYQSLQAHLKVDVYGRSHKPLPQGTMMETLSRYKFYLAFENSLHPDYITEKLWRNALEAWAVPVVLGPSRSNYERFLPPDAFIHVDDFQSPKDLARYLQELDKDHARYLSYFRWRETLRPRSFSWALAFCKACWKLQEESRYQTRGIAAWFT
Method: Sera were collected from healthy females and ovarian cancer patients admitted to Roswell Park Cancer Institute in Buffalo, N.Y., USA. Ovarian tumor tissues were obtained during surgical procedures from patients with ovarian cancer. Both sera and tissues were stored frozen at -70° C. until use.
as §1
The activity of serum α1,3-fucosyltransferase was measured with the specific substrate 2'-methyl LacNAc and compared with the ability of several other synthetic substrates to act as an acceptor of fucose.
When the structure of the acceptor 2'-methyl LacNAc was modified by replacing the methyl group with sulfate group in C-2', 3', 6' or 6 position and tested their ability to act as the acceptor of fucose, the following novel findings emerged. […] The β-benzyl glycoside of 3' sulfo LacNAc was quite active (168.4%) but less than the parent compound.

[3] = test system: α1,3-L-fucosyltransferase of the particulate fraction of ovarian tumor; test: Assay of α1,3-fucosyltransferase with synthetic acceptors, ovarian tumor particulate fraction; type: biochemical, human; settings: for Relative Percent: 2'-methyl LacNAc = 100; for [14C] Fucose Incorporated (CPM): acceptor 3.0 mM, 37° C. 18 h
Method: FIG. 2 The scheme for the preparation of the particulate and soluble fractions of human ovarian tumor.
as §1
This finding is quite different from what we found with the soluble fraction, where α1,4-fucosyltransferase activity seems to be greater than α1,3-fucosyltransferase activity. […] The different nature of the above enzymes was made further clear, when sulfated derivatives of LacNAc was tested as acceptors.

Row | SMILES | Relative Percent ([1]; 2'-methyl LacNAc = 100) | [14C] Fucose Incorporated (CPM) [1] | Relative Percent ([2]; 2'-methyl LacNAc = 100) | [14C] Fucose Incorporated (CPM) [2] | Relative Percent ([1]; 2'-methyl LacNAc = 100, listed as 2' sulfo LacNAc) | Relative Percent ([1]; 2'-methyl LacNAc = 100, listed as 2' sulfo-LacNAc) | Relative Percent [3] | [14C] Fucose Incorporated (CPM) [3] | Relative Percent ([1]; 2'-methyl LacNAc = 100, listed as 6' sulfo LacNAc) | Relative Percent ([1]; 2'-methyl LacNAc = 100, listed as 6-'-sulfo LacNAc) | Relative Percent ([1]; 2'-methyl LacNAc = 100, listed as 6-sulfo LacNAc) | Relative Percent ([1]; 2'-methyl LacNAc = 100, listed as β-benzyl glycoside of Galβ1, 3 Glc NAc) | Relative Percent ([1]; 2'-methyl LacNAc = 100, listed as β-benzyl glycoside of Galβ1,3GlcNAc) | Relative Percent ([1]; 2'-methyl LacNAc = 100, listed as 3-sulfo Galβ1,3GlcNAcβ-O-Bn) | Relative Percent ([1]; 2'-methyl LacNAc = 100, listed as β-benzyl glycoside of 3-sulfoGalβ1, 3 GlcNAc) | Relative Percent ([2]; 2'-methyl LacNAc = 100, listed as 3-Sulfo Galβ1, 3GlcNAcβ-O-Bn)
1 | CC(=O)N[C@H]1C(O)O[C@H](CO)[C@@H](O[C@@H]2O[C@H](CO)[C@H](O)[C@H](O)[C@H]2OS(=O)(=O)O)[C@@H]1O (stereo partly drawn) [2'-Sulfo LacNAc] | 32.7% | 2414 CPM | 22.0% | 380 CPM | 33% | 32.7% | 9.8% | 4718 CPM | – | – | – | – | – | – | – | –
2 | CC(=O)N[C@H]1[C@H](OCc2ccccc2)O[C@H](CO)[C@@H](O[C@@H]2O[C@H](CO)[C@H](O)[C@H](O)[C@H]2O[C@@H]2O[C@@H](C)[C@@H](O)[C@@H](O)[C@@H]2O)[C@@H]1O [2'-Fucosyl LacNAcβ-O--Bn] | 373.0% | 27571 CPM | 425.0% | 7352 CPM | – | – | 174.0% | 83975 CPM | – | – | – | – | – | – | – | –
3 | CC(=O)N[C@H]1[C@H](OCc2ccccc2)O[C@H](CO)[C@@H](O[C@@H]2O[C@H](CO)[C@H](O)[C@H](OS(=O)(=O)O)[C@H]2O)[C@@H]1O [3'-Sulfo LacNAcβ-O--Bn, Benzyl 4-0-(sodium β-D-Galactopyranosyl 3-Sulfate)-2-acetamido-2-deoxy-β-D-Glucopyranoside] | 183.8% | 13585 CPM | 168.4% | 2913 CPM | – | – | 33.3% | 16062 CPM | – | – | – | – | – | – | – | –
4 | CC(=O)N[C@H]1C(O)O[C@H](CO)[C@@H](O[C@@H]2O[C@H](CO)[C@H](O)[C@H](O)[C@H]2O)[C@@H]1O[C@@H]1O[C@@H](C)[C@@H](O)[C@@H](O)[C@@H]1O (stereo partly drawn) [3-Fucosyl LacNAc] | 1.9% | 144 CPM | 4.7% | 82 CPM | – | – | 3.7% | 1801 CPM | – | – | – | – | – | – | – | –
5 | CC(=O)N[C@H]1C(O)O[C@H](CO)[C@@H](O[C@@H]2O[C@H](CO)[C@H](O)[C@H](O)[C@H]2O[C@@H]2O[C@@H](C)[C@@H](O)[C@@H](O)[C@@H]2O)[C@@H]1O (stereo partly drawn) [2'-Fucosyl LacNAc, 2'-Fucosyl N-acetyllactosamine] | 436.1% | 32235 CPM | 253.1% | 4379 CPM | – | – | 144.7% | 69824 CPM | – | – | – | – | – | – | – | –

Continued, values first:

Row | Relative Percent ([1]; 2'-methyl LacNAc = 100) | [14C] Fucose Incorporated (CPM) [1] | Relative Percent ([2]; 2'-methyl LacNAc = 100) | [14C] Fucose Incorporated (CPM) [2] | Relative Percent ([1]; 2'-methyl LacNAc = 100, listed as 2' sulfo LacNAc) | Relative Percent ([1]; 2'-methyl LacNAc = 100, listed as 2' sulfo-LacNAc) | Relative Percent [3] | [14C] Fucose Incorporated (CPM) [3] | Relative Percent ([1]; 2'-methyl LacNAc = 100, listed as 6' sulfo LacNAc) | Relative Percent ([1]; 2'-methyl LacNAc = 100, listed as 6-'-sulfo LacNAc) | Relative Percent ([1]; 2'-methyl LacNAc = 100, listed as 6-sulfo LacNAc) | Relative Percent ([1]; 2'-methyl LacNAc = 100, listed as β-benzyl glycoside of Galβ1, 3 Glc NAc) | Relative Percent ([1]; 2'-methyl LacNAc = 100, listed as β-benzyl glycoside of Galβ1,3GlcNAc) | Relative Percent ([1]; 2'-methyl LacNAc = 100, listed as 3-sulfo Galβ1,3GlcNAcβ-O-Bn) | Relative Percent ([1]; 2'-methyl LacNAc = 100, listed as β-benzyl glycoside of 3-sulfoGalβ1, 3 GlcNAc) | Relative Percent ([2]; 2'-methyl LacNAc = 100, listed as 3-Sulfo Galβ1, 3GlcNAcβ-O-Bn) | SMILES
6 | 0% | 0 CPM | 9.5% | 164 CPM | – | – | – | – | – | – | – | – | – | – | – | – | CC(=O)N[C@H]1[C@@H](Oc2ccccc2[N+](=O)[O-])O[C@H](CO[C@@H]2O[C@H](CO)[C@@H](O)[C@H](O)[C@H]2NC(C)=O)[C@H](O)[C@@H]1O [G1cNAcβ1,6Ga1NAcα-O--ONp]
7 | 5.3% | 395 CPM | 36.2% | 626 CPM | – | – | 42.6% | 20543 CPM | 5% | 5.3% | – | – | – | – | – | – | CC(=O)N[C@H]1C(O)O[C@H](CO)[C@@H](O[C@@H]2O[C@H](COS(=O)(=O)O)[C@H](O)[C@H](O)[C@H]2O)[C@@H]1O (stereo partly drawn) [6'-Sulfo LacNAc]
8 | – | – | 42.7% | 739 CPM | – | – | 42.6% | 20559 CPM | – | – | – | – | – | – | – | – | CO[C@@H]1O[C@H](CO)[C@H](O)[C@H](O[C@@H]2O[C@H](CO)[C@@H](O)[C@H](O[C@@H]3O[C@H](CO)[C@H](O)[C@H](O)[C@H]3O)[C@H]2NC(C)=O)[C@H]1O [Ga1β1,3G1cNAcβ1,3Ga1β-O--Me]
9 | 272.6% | 20148 CPM | 172.4% | 2983 CPM | – | – | 53.3% | 25740 CPM | – | – | 272% and 272.6% | – | – | – | – | – | CC(=O)N[C@H]1C(O)O[C@H](COS(=O)(=O)O)[C@@H](O[C@@H]2O[C@H](CO)[C@H](O)[C@H](O)[C@H]2O)[C@@H]1O (stereo partly drawn) [6-Sulfo LacNAc, β-D-GALACTOPYRANOSYL-(1→4)-SODIUM 2-ACETAMIDO-2-DEOXY-D-GLUCOPYRANOSE 6-SULFATE]
10 | 1004.5% | 74260 CPM | 21.7% | 376 CPM | – | – | 37.8% | 18221 CPM | – | – | – | 1005% | 1004.5% | – | – | – | CC(=O)N[C@H]1[C@H](OCc2ccccc2)O[C@H](CO)[C@@H](O)[C@@H]1O[C@@H]1O[C@H](CO)[C@H](O)[C@H](O)[C@H]1O [Ga1β1,3G1cNAcβ-O--Bn]
11 | 60.6% | 4480 CPM | 93.4% | 1615 CPM | – | – | 61.8% | 29842 CPM | – | – | – | – | – | – | – | – | CC(=O)N[C@H]1C(O)O[C@H](CO)[C@@H](O[C@@H]2O[C@H](CO)[C@H](O)[C@H](O)[C@H]2O)[C@@H]1O (stereo partly drawn) [LacNAc]
12 | 415.4% | 30704 CPM | 0% | 0 CPM | – | – | 2.9% | 1382 CPM | – | – | – | – | – | 415.4% | 415% | did not show any activity | CC(=O)N[C@H]1[C@H](OCc2ccccc2)O[C@H](CO)[C@@H](O)[C@@H]1O[C@@H]1O[C@H](CO)[C@H](O)[C@H](OS(=O)(=O)O)[C@H]1O [3-SulfoGa1β1,3G1cNAcβ-O--Bn, Benzyl 3-0-(sodium β-D-Galactopyranosy 3-Sulfate)-2-acetamido-2-deoxy-β-D-Glucopyranoside]
